Source: patent US8809350B2, “Purine and pyrimidine CDK inhibitors and their use for the treatment of autoimmune diseases” (priority 2004, dated 2014)
“Also recorded” adds a separate entry of the source. Where two headings read alike, the source gives them in different places.

Key:
[1] = Food intake of NZB/W F1 lupus mice; type: in vivo; settings: Example 1; for Food Intake: mean ± SE
[2] = Body weight of NZB/W F1 lupus mice; settings: Example 1; for Body Weight: mean ± SE
[3] = Serum transaminase (AST, ALT) in NZB/W F1 lupus mice; settings: Example 1; for Serum Transaminase ALT / Serum Transaminase AST: mean ± SE
[4] = Water intake of NZB/W F1 lupus mice; type: in vivo; set-up: Water intake: unit not given beside the values; settings: Example 1; for Water intake: mean ± SE
[5] = system: anti-dsDNA autoantibodies; assay: Serum anti-DNA antibodies in NZB/W F1 lupus mice; settings: Example 1; for Serum anti-DNA antibodies: mean ± SE
CDK6D3 = CDK6D3 (Homo sapiens, UniProt Q00534); assay: In-house kinase assay (32P incorporation); type: biochemical; settings: in-house kinase assays
Chain of CDK6D3 (Q00534 whole entry): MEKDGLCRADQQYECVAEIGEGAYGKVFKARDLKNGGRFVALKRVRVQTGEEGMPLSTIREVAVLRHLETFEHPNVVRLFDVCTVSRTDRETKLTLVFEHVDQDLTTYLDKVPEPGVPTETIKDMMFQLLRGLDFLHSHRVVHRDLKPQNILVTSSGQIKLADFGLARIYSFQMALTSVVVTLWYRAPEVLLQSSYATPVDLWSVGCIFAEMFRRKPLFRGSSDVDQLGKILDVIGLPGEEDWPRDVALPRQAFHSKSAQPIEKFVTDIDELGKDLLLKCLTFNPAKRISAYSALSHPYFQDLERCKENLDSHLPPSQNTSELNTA
Chain of CDK6D3 (P30281 whole entry partner): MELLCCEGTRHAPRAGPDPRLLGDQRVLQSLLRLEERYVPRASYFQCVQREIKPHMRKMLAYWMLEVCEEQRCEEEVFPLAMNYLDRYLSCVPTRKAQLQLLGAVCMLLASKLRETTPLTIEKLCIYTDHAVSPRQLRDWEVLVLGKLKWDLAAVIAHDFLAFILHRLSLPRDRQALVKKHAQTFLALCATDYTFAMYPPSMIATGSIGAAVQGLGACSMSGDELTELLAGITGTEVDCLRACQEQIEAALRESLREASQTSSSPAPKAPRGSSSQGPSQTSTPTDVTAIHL
Description: (§1) Kinase activity was investigated by measuring the incorporation of radioactive phosphate from ATP into appropriate polypeptide substrates. Recombinant protein kinases and kinase complexes were produced or obtained commercially. Assays were performed using 96-well plates and appropriate assay buffers (typically 25 mM β-glycerophosphate, 20 mM MOPS, 5 mM EGTA, 1 mM DTT, 1 mM […], pH 7.4), into which were added 2-4 μg of active enzyme with appropriate substrates. The reactions were initiated by addition of Mg/ATP mix (15 mM MgCl2+100 μM ATP with 30-50 kBq per well of [γ-^32P]-ATP) and mixtures incubated as required at 30° C. Reactions were stopped on ice, followed by filtration through p81 filterplates or GF/C filterplates (Whatman Polyfiltronics, Kent, UK). After washing 3 times with 75 mM aq orthophosphoric acid, plates were dried, scintillant added and incorporated radioactivity measured in a scintillation counter (TopCount, Packard Instruments, Pangbourne, Berks, UK). Compounds for kinase assay were made up as 10 mM stocks in DMSO and diluted into 10% DMSO in assay buffer.

AurB = AurB (Homo sapiens, UniProt Q96GD4); assay: In-house kinase assay (32P incorporation); type: biochemical; settings: in-house kinase assays
Chain of AurB (Q96GD4 whole entry): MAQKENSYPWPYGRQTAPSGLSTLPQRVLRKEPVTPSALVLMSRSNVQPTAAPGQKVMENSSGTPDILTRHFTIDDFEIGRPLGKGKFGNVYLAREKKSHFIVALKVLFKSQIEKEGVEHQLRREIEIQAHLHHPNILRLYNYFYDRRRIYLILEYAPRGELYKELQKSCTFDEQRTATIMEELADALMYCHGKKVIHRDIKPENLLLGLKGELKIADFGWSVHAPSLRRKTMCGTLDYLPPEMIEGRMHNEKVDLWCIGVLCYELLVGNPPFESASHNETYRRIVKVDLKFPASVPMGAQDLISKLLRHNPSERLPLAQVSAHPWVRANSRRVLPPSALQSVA
Description: as §1

AurA = molecular target: T1, AurA (Homo sapiens, UniProt O14965); assay: In-house kinase assay (32P incorporation); type: biochemical; settings: in-house kinase assays
T1 sequence (O14965 1-403): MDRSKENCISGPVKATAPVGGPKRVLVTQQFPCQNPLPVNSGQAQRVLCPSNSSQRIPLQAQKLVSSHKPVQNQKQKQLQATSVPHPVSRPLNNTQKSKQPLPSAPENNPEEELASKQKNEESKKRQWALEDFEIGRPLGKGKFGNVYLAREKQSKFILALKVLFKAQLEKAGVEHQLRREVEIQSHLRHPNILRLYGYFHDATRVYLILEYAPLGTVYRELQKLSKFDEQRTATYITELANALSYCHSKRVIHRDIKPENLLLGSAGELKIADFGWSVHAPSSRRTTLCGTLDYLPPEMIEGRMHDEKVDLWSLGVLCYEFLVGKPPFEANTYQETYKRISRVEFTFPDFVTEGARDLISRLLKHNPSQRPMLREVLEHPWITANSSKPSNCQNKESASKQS
Description: as §1

CDK1B = CDK1B (Homo sapiens, UniProt P06493); assay: In-house kinase assay (32P incorporation); type: biochemical; settings: in-house kinase assays
Chain of CDK1B (P06493 whole entry): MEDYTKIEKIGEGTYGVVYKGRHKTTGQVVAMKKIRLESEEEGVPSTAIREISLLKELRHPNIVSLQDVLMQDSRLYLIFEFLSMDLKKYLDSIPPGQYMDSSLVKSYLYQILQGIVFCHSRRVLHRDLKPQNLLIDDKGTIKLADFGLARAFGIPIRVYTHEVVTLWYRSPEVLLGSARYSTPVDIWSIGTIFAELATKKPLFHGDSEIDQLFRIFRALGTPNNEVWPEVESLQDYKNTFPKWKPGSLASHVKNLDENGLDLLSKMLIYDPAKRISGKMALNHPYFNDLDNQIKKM
Chain of CDK1B (P14635 whole entry partner): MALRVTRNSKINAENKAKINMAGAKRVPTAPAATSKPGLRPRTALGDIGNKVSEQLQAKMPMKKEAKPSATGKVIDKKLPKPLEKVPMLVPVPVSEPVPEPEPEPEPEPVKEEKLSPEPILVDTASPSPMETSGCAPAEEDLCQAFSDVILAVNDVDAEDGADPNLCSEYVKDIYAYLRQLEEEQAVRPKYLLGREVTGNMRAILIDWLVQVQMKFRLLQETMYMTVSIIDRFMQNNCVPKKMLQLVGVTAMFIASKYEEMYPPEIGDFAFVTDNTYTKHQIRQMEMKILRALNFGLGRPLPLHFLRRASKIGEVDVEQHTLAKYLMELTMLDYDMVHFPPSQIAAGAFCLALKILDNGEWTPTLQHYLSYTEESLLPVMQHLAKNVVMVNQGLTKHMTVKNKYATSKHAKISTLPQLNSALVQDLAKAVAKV
Description: as §1

tumour cell panels = assay: In-house 72 hour cytotoxicity assays on tumour cell panels; type: cell-based
CDK7/cyclin H = CDK7/cyclin H (Homo sapiens, UniProt P50613); assay: CDK 7 and 9 assay (CTD peptide substrate); type: biochemical; settings: in-house kinase assays; read-out: Average IC50 CDK7H
Chain of CDK7/cyclin H (P50613 whole entry): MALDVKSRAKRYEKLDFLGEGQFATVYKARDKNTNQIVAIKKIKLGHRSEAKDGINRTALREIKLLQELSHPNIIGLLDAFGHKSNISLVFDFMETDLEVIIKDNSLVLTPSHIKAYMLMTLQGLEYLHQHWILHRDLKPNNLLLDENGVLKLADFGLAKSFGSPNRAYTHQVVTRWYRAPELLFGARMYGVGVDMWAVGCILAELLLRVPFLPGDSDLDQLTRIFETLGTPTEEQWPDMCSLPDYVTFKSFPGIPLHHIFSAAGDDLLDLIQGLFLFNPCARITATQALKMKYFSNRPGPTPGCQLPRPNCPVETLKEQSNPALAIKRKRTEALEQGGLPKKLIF
Chain of CDK7/cyclin H (P51946 whole entry partner): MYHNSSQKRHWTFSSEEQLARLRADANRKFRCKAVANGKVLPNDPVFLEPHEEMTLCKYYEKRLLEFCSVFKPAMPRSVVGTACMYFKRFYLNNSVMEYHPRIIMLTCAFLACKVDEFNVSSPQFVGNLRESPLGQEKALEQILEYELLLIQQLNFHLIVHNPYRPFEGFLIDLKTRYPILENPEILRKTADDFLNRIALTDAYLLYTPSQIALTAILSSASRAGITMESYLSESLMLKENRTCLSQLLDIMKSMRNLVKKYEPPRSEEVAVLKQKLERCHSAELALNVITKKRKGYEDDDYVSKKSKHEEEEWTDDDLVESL
Description: as §1
(§2) The reaction was stopped by placing the plate on ice for 2 min. Avidin (50 μg) was added to each well, and the plate was incubated at room temp for 30 min. The samples were transferred to a 96-well P81 filter plate, and washed (4×200 μL per well) with 75 mM phosphoric acid. Microscint 40 scintillation liquid (50 μL) was added to each well, and the amount of ^32P incorporation for each sample was measured using a Packard Topcount microplate scintillation counter.

CDK9/cyclin T1 = CDK9/cyclin T1 (Homo sapiens, UniProt P50750); assay: CDK 7 and 9 assay (CTD peptide substrate); type: biochemical; settings: in-house kinase assays; read-out: Average IC50 CDK9T1
Chain of CDK9/cyclin T1 (P50750 whole entry): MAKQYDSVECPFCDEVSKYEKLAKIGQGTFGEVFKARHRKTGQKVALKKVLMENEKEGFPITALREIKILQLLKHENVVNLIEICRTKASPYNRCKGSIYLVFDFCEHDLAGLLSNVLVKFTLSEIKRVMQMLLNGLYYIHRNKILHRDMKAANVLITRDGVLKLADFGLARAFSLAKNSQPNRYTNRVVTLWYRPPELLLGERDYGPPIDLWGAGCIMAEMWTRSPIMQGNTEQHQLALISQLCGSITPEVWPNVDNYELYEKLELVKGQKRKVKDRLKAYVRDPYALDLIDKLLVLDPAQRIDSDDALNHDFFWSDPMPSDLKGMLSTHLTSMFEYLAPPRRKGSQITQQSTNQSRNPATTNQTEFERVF
Chain of CDK9/cyclin T1 (O60563 whole entry partner): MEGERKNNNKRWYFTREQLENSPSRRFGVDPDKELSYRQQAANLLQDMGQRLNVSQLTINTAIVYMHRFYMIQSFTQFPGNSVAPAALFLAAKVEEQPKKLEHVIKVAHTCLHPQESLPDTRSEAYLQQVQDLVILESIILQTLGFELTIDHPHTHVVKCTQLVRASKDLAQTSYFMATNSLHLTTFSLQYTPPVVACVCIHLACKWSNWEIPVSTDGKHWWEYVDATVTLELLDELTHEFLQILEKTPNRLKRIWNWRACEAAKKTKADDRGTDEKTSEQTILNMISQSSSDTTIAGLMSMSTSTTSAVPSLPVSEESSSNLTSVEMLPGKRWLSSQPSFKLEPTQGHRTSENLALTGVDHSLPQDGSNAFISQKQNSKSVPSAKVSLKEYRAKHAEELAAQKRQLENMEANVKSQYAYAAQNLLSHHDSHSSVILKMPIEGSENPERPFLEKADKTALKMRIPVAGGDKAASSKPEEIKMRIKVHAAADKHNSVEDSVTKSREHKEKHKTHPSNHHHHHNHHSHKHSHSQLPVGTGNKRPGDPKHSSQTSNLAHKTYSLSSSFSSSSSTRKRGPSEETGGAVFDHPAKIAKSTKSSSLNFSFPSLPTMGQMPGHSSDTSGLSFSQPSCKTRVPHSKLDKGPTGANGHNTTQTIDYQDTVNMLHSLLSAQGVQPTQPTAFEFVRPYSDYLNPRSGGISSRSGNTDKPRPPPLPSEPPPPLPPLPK
Description: as §1, §2

stimulated PBMCs = assay: T cell proliferation assay (BrdU ELISA in stimulated PBMCs); type: cell-based
Description: PBMCs were seeded in 96 well plates at 1×10^5 cells/well, in 50 μL per well culture medium. […] All stimulants and compounds were made up to 4× final concentration in tissue culture medium and 25 μL of each drug and stimulant was then added to wells, for a final volume of 100 μL/well. For unstimulated controls, 25 μL tissue culture medium was added to wells instead of stimulant and for untreated cells, 25 μL/well tissue culture medium containing equal volume DMSO (0.1% final) was added. Three adjacent wells were treated for each stimulation/treatment condition and the mean value calculated for analysis.
In addition, PBMCs were stimulated with ConA (Concanavalin A, Sigma C5275) at concentrations ranging from 0.5 μg/mL to 100 μg/mL to identify its stimulatory effect and optimal concentration.
Cells were labelled with BrdU for two hours prior to harvesting. Plates were then centrifuged for 10 minutes at 300 g (RT), supernatant removed from wells by pipetting and cells dried for 1 hour at 60° C. FixDenat solution was added to plates (100 μL/well) and incubated for 30 minutes, then flicked to remove and anti-BrdU-POD solution added to plates (100 μL/well) and incubated for 90 minutes.

CDK2E = CDK2E (Homo sapiens, UniProt P24941); assay: In-house kinase assay (32P incorporation); type: biochemical; settings: in-house kinase assays
Description: as §1

CDK4D1 = CDK4D1 (Homo sapiens, UniProt P11802); assay: In-house kinase assay (32P incorporation); type: biochemical; settings: in-house kinase assays
Chain of CDK4D1 (P11802 whole entry): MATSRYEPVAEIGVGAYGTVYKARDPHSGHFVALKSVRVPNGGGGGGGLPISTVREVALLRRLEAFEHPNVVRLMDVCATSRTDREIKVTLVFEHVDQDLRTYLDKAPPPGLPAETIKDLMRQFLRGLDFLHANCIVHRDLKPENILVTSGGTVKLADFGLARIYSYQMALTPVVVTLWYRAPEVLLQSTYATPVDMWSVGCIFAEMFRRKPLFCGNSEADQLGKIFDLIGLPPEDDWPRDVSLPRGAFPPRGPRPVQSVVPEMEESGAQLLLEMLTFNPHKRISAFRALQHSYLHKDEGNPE
Chain of CDK4D1 (P24385 whole entry partner): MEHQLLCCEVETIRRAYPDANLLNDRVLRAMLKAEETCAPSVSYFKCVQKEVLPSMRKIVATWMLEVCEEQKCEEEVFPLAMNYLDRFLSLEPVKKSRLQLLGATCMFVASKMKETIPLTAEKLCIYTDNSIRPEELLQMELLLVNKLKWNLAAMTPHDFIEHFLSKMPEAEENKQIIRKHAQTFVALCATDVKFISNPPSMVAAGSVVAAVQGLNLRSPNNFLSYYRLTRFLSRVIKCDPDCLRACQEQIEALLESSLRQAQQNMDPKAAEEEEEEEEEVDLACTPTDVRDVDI
Description: as §1

[6] = 100 mg/kg daily by gavage from 2 months (preventive), age 2 months
[7] = 100 mg/kg daily by gavage from 2 months (preventive), age 2.5 months
[8] = 100 mg/kg daily by gavage from 2 months (preventive), age 3 months
[9] = 100 mg/kg daily by gavage from 2 months (preventive), age 3.5 months
[10] = 100 mg/kg daily by gavage from 2 months (preventive), age 4 months
[11] = 100 mg/kg daily by gavage from 2 months (preventive), age 4.5 months
[12] = 100 mg/kg daily by gavage from 2 months (preventive), age 5 months
[13] = 200 mg/kg daily by gavage from 2 months (preventive), age 2 months
[14] = 200 mg/kg daily by gavage from 2 months (preventive), age 2.5 months
[15] = 200 mg/kg daily by gavage from 2 months (preventive), age 3 months
[16] = 200 mg/kg daily by gavage from 2 months (preventive), age 3.5 months
[17] = 200 mg/kg daily by gavage from 2 months (preventive), age 5 months
[18] = every two weeks from 2 to 5 months
[19] = 100 mg/kg therapeutic (from 5 months)
[20] = rounded IC50 value used for ease of calculation in PBMC assays, read-out: IC50 Used

CC[C@H](CO)Nc1nc(NCc2ccccc2)c2ncn(C(C)C)c2n1 [CYC202, 2-(1-R-hydroxymethylpropylamino)-6-benzylamino-9-isopropylpurine]
Food Intake [1, 6]: 3.69 ± 0.33
Food Intake [1, 7]: 3.77 ± 0.23
Food Intake [1, 8]: 3.92 ± 0.18
Food Intake [1, 9]: 4.08 ± 0.18
Food Intake [1, 10]: 3.92 ± 0.26
Food Intake [1, 11]: 3.85 ± 0.30
Food Intake [1, 12]: 3.85 ± 0.22
Food Intake [1, 13]: 3.54 ± 0.29
Food Intake [1, 14]: 4.08 ± 0.08
Food Intake [1, 15]: 4.00 ± 0.11
Food Intake [1, 16]: 4.08 ± 0.21
Food Intake ([1]; 200 mg/kg daily by gavage from 2 months (preventive), age 4 months): 4.00 ± 0.16
Food Intake ([1]; 200 mg/kg daily by gavage from 2 months (preventive), age 4.5 months): 4.00 ± 0.18
Food Intake [1, 17]: 3.92 ± 0.29
Food intake versus vehicle [1, 18]: comparable
Body Weight [2, 6]: 27.93 ± 0.62
Body Weight [2, 8]: 27.86 ± 0.52
Body Weight [2, 10]: 28.07 ± 0.57
Body Weight [2, 12]: 28.64 ± 0.57
Body Weight ([2]; 100 mg/kg daily by gavage from 2 months (preventive), age 6 months): 30.23 ± 0.67
Body Weight ([2]; 100 mg/kg daily by gavage from 2 months (preventive), age 7 months): 31.50 ± 0.87
Body Weight ([2]; 100 mg/kg daily by gavage from 2 months (preventive), age 8 months): 30.78 ± 0.91
Body Weight ([2]; 100 mg/kg daily by gavage from 5 months (therapeutic), age 2 months): 26.71 ± 0.74
Body Weight ([2]; 100 mg/kg daily by gavage from 5 months (therapeutic), age 3 months): 28.14 ± 0.69
Body Weight ([2]; 100 mg/kg daily by gavage from 5 months (therapeutic), age 4 months): 29.43 ± 1.01
Body Weight ([2]; 100 mg/kg daily by gavage from 5 months (therapeutic), age 5 months): 29.71 ± 0.82
Body Weight ([2]; 100 mg/kg daily by gavage from 5 months (therapeutic), age 6 months): 31.45 ± 0.96
Body Weight ([2]; 100 mg/kg daily by gavage from 5 months (therapeutic), age 7 months): 30.80 ± 1.69
Body Weight ([2]; 100 mg/kg daily by gavage from 5 months (therapeutic), age 8 months): 29.80 ± 1.46
Body Weight [2, 13]: 27.85 ± 0.72
Body Weight [2, 15]: 28.00 ± 0.68
Body Weight [2, 17]: 28.92 ± 0.35
Body Weight ([2]; 200 mg/kg daily by gavage from 2 months (preventive), age 6 months): 31.58 ± 0.43
Body Weight ([2]; 200 mg/kg daily by gavage from 2 months (preventive), age 7 months): 30.82 ± 0.35
Body Weight ([2]; 200 mg/kg daily by gavage from 2 months (preventive), age 8 months): 31.60 ± 0.52
Body weight versus other experimental groups ([2]; all CYC202 groups): No difference
Serum Transaminase ALT [3, 19]: 36.00 ± 2.45 IU/L
Serum Transaminase AST [3, 19]: 74.40 ± 1.72 IU/L
Serum transaminase levels (ALT and AST) ([3]; 200 mg/kg from 2 months or 100 mg/kg from 5 months, similar to control mice): not modified by treatments
Serum Transaminase ALT ([3]; 200 mg/kg preventive): 36.44 ± 4.04 IU/L
Serum Transaminase AST ([3]; 200 mg/kg preventive): 62.89 ± 4.70 IU/L
Water intake [4, 6]: 6.64 ± 0.29
Water intake [4, 7]: 5.14 ± 0.40
Water intake [4, 8]: 4.21 ± 0.28
Water intake [4, 9]: 5.00 ± 0.28
Water intake [4, 10]: 5.57 ± 0.20
Water intake [4, 11]: 4.43 ± 0.20
Water intake [4, 12]: 3.93 ± 0.22
Water intake [4, 13]: 5.31 ± 0.26
Water intake [4, 14]: 4.77 ± 0.20
Water intake [4, 15]: 4.92 ± 0.18
Water intake [4, 16]: 5.08 ± 0.21
Water intake [4, 17]: 4.23 ± 0.28
Water intake versus vehicle [4, 18]: comparable
Serum anti-DNA antibodies ([5]; 100 mg/kg preventive, 5 months): 4.04 ± 0.76 U/ml
Serum anti-DNA antibodies ([5]; 100 mg/kg preventive, 8 months): 76.55 ± 21.40 U/ml
Serum anti-DNA antibodies ([5]; 200 mg/kg preventive, 5 months): 24.20 ± 6.52 U/ml
Serum anti-DNA antibodies ([5]; 200 mg/kg preventive, 8 months): 73.39 ± 21.13 U/ml
Anti-DNA antibody levels versus vehicle ([5]; treated from 2 months, both doses, at 5 or 8 months of age): significantly lower than vehicle

Cc1nc(C)c(-c2ccnc(Nc3ccc(N(C)C)cc3)n2)s1 [Compound 4]
IC50 (CDK6D3): 1.04 µM
IC50 (AurB): 0.03 µM
IC50 (AurA): 0.038 µM
IC50 (CDK1B): 7.46 µM
IC50 (tumour cell panels; PBMC, read-out: IC50 Used): 1 µM
IC50 (CDK7/cyclin H): 8.57 µM
IC50 (CDK9/cyclin T1): 1.88 µM
BrdU incorporation (stimulated PBMCs; Example 3, PMA/I stimulated PBMCs, all concentrations): higher than in PHA stimulated cells
BrdU incorporation (stimulated PBMCs; Example 4, PHA or ConA stimulated PBMCs, 0.25×IC50 to 4×IC50, 48 and 72 hours): BrdU signals do not reduce to background levels; also recorded: fails to achieve complete inhibition of proliferation activity

CC[C@H](Nc1nc(NCc2cccnc2)c2ncn(C(C)C)c2n1)C(C)(C)O [Compound 6]
IC50 (CDK2E): 0.126 µM
IC50 (CDK6D3): 9.19 µM
IC50 (AurB): > 10 µM
IC50 (CDK4D1): 19.3 µM
IC50 (AurA): > 10 µM
IC50 (CDK1B): 7.6 µM
IC50 (tumour cell panels; 72 h, read-out: IC50 Average): 10.4 µM
IC50 (tumour cell panels; [20]): 10 µM
IC50 (CDK7/cyclin H): 1.33 µM
IC50 (CDK9/cyclin T1): 0.338 µM

CC[C@H](Nc1nc(NCc2cccnc2)c2ncn(C(C)C)c2n1)[C@@H](C)O [Compound 8]
IC50 (CDK6D3): 0.168 µM
IC50 (AurB): 0.399 µM
IC50 (AurA): 0.652 µM
IC50 (CDK1B): 1.99 µM
IC50 (tumour cell panels; 72 h, read-out: IC50 Average): 0.876 µM
IC50 (tumour cell panels; [20]): 1 µM

Cc1nc(N)sc1-c1ccnc(Nc2ccc(N3CCOCC3)cc2)n1 [Compound 11]
IC50 (tumour cell panels; 72 h, read-out: IC50 Average): 0.291 µM
IC50 (tumour cell panels; [20]): 0.5 µM
IC50 (CDK7/cyclin H): 0.266 µM

CNc1nc(C)c(-c2ccnc(Nc3ccc(N4CCNCC4)cc3)n2)s1 [Compound 12]
IC50 (CDK4D1): 1.02 µM
IC50 (CDK1B): 1.03 µM
IC50 (tumour cell panels; 72 h, read-out: IC50 Average): 0.353 µM
IC50 (tumour cell panels; [20]): 0.5 µM
